Laboratory results from article PMC12263422, “Cryo-EM structure of the human THIK-1 K2P K^+ channel reveals a lower Y gate regulated by lipids and anesthetics” (Nature Structural & Molecular Biology, 2025).
Numbering of substitutions follows the chain as printed. Values joined by “and” are separate entries in the source; they are usually repeats but may differ in a detail not shown here. Identical values can stand only once.

Experiments:
Assay type in all cases: cell-based
[1] = target: T1, Human K2P13.1 THIK-1 (WT) (Homo sapiens, UniProt Q9HB14); test: Macroscopic inside-out excised patch recordings from Xenopus oocytes expressing WT THIK-1; compounds applied to the intracellular side; conditions: for extent of activation by oleoyl-CoA: 5 µM oleoyl-CoA; for Fold activation: 5.0 µM oleoyl-CoA
T1 construct: expressed in transfected cells; host or cells: Xenopus oocytes (mRNA injection)
T1 sequence (Q9HB14 1-408): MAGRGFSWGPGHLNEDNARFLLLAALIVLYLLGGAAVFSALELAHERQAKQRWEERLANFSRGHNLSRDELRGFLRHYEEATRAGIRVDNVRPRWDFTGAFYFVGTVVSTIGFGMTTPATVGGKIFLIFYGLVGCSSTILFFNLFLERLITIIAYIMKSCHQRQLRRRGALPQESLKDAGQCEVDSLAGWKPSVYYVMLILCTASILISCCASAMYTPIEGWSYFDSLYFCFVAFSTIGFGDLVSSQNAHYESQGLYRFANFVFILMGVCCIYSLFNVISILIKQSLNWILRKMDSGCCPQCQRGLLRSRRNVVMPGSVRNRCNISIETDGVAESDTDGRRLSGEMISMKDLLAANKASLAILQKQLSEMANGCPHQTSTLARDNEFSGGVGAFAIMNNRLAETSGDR
Text: (§1) Human K2P13.1 THIK-1 (GenBank accession number: NM_022054) and human K2P12.1 THIK-2 (NM_022055.1) were used in this study. For functional expression studies, the respective K^+ channel subtype coding sequences were subcloned into the oocyte expression vector pSGEM or the dual-purpose expression vector pFAW[41] and verified by sequencing. All mutant channels were obtained by site-directed mutagenesis and verified by sequencing. To increase surface expression and macroscopic currents, measurements of THIK-2 channels used a mutated ER retention motif, (R11A R12A R14A R15A R16A; THIK-2*)[20]. Vector DNA was linearized with NheI or MluI, and mRNA was synthesized in vitro using the SP6 or T7 AmpliCap Max High Yield Message Maker Kit (Cellscript, USA) or HiScribe T7 ARCA mRNA Kit (New England Biolabs).
(§2) Two-electrode voltage–clamp (TEVC) studies were performed in Xenopus oocytes. All animal use conformed to the Guide for the Care and Use of Laboratory Animals (NIH Publication 85–23), and all experiments using Xenopus toads were approved by the local ethics panels. Oocytes were stored at 17 °C in ND96 recording solution composed of (in mM): 96 NaCl, 2 KCl, 1.8 CaCl2, 1 MgCl2, 5 HEPES (pH 7.5 adjusted with NaOH and HCl), supplemented with Na-pyruvate (275 mg L^–1), theophylline (90 mg L^–1) and gentamicin (50 mg L^–1). Oocytes were injected with 1 ng mRNA for WT or mutant channels, and were incubated for 24–48 h at 17 °C. Two-electrode voltage clamp recordings were then performed as previously described[42],[43]. For macroscopic patch–clamp measurements, oocytes were obtained as described above incubated at 17 °C in a solution containing (mM): 54 NaCl, 30 KCl, 2.4 NaHCO3, 0.82 MgSO4 ×7 H2O, 0.41 CaCl2, 0.33 Ca(NO3)2 ×4 H2O and 7.5 TRIS (pH 7.4 adjusted with NaOH and HCl) for 1–4 days before use. Excised patch recordings in inside-out configuration conditions were performed at room temperature. Patch pipettes were made from thick-walled borosilicate glass GB 200TF-8P (Science Products), had resistances of 0.2–0.5 MΩ (tip diameter, 10–25 µm) and filled with a pipette solution (in mM): 120 KCl, 10 HEPES and 3.6 CaCl2 (pH 7.4 adjusted with KOH and HCl). Intracellular bath solutions and compounds were applied to the cytoplasmic side of excised patches for the various K^+ channels through a gravity flow multi-barrel pipette system. The intracellular solution had the following composition (in mM): 120 KCl, 10 HEPES, 2 EGTA and 1 pyrophosphate (pH adjusted with KOH and HCl). Currents were recorded with an EPC10 amplifier (HEKA Electronics) and sampled at 10 kHz or higher, with filtering set to 3 kHz (–3 dB) or higher, as appropriate for sampling rate. For measurements of GPCR activation, whole-cell currents were recorded for THIK-1 in transiently transfected HEK-293 cells. Cells were stimulated by a ramp protocol between −100 and +60 mV (holding potential, −80 mV). The pipette solution was composed of (in mM): 140 KCl, 2 MgCl2, 1 CaCl2, 2.5 EGTA and 10 HEPES (pH 7.3 adjusted with KOH and HCl). The extracellular bath solution had the following composition (in mM): 135 NaCl, 5 KCl, 2 MgCl2, 2 CaCl2, 10 glucose and 10 HEPES pH (pH 7.3 adjusted with NaOH and HCl). Oxotremorine M (Oxo-M) was added to extracellular bath solution to obtain the final concentration. Single-channel currents were recorded with an Axopatch 200B amplifier through a Digidata 1440A digitizer (Molecular Devices). Data were filtered at 2 kHz and recorded at a 200-kHz sampling rate with the program Clampex (Molecular Devices). Pipette solution and bath solution for cell-attached recordings contained (in mM): 140 KCl, 2 MgCl2, 1 CaCl2 and 10 HEPES (pH 7.4 adjusted with KOH and HCl). For inside-out recordings, the bath solution contained (in mM): 140 KCl, 2 MgCl2, 1 CaCl2 and 10 HEPES (pH 7.2 adjusted with KOH and HCl). All experiments were conducted at room temperature. […]

THIK-1 F262A = target: T2, THIK-1 F262A (Homo sapiens, UniProt Q9HB14, F262A); test: Inside-out excised patch recordings, oocytes, THIK-1 F262A mutant (lipid activation); conditions: THIK-1 F262A
T2 construct: expressed in transfected cells; host or cells: Xenopus oocytes (mRNA injection)
T2 sequence (Q9HB14 1-408 F262A): T1 sequence (Q9HB14 1-408) with F262A
Text: as §1, §2

THIK-1 R92A = target: T3, THIK-1 R92A (Homo sapiens, UniProt Q9HB14, R92A); test: Inside-out excised patch recordings, oocytes, THIK-1 R92A mutant (lipid activation); conditions: THIK-1 R92A
T3 construct: expressed in transfected cells; host or cells: Xenopus oocytes (mRNA injection)
T3 sequence (Q9HB14 1-408 R92A): T1 sequence (Q9HB14 1-408) with R92A
Text: as §1, §2

extent of activation by oleoyl-CoA ([1]; WT): 14 ± 1 fold
extent of activation by oleoyl-CoA ([1]; WT preinhibited with halothane (15.2 mM)): 8 ± 2 fold
Fold activation ([1]; WT, Halothane pre-inhibited (15.2 mM halothane), mean): 8.43
Fold activation ([1]; WT, absence of halothane, mean): 13.60
Fold activation with 5.0 µM oleoyl-CoA ([1]; THIK-1 WT, mean): 13.60
Fold activation with 5.0 µM oleoyl-CoA (THIK-1 F262A; mean): 17.39
Fold activation with 5.0 µM oleoyl-CoA (THIK-1 R92A; mean): 19.67
Compound: CCCCCCCC/C=C\CCCCCCCC(=O)SCCNC(=O)CCNC(=O)[C@H](O)C(C)(C)COP(=O)(O)OP(=O)(O)OC[C@H]1O[C@@H](n2cnc3c(N)ncnc32)[C@H](O)[C@@H]1OP(=O)(O)O [oleoyl-CoA]
Fold activation ([1]; WT, Halothane pre-inhibited (15.2 mM halothane), individual recordings): 8.238 and 0.783 and 13.259 and 5.975 and 16.259 and 6.147 and 12.474 and 4.311
Fold activation with 5.0 µM oleoyl-CoA (THIK-1 F262A; individual recordings): 16.700 and 14.500 and 16.910 and 15.530 and 18.460 and 22.210
Fold activation with 5.0 µM oleoyl-CoA (THIK-1 R92A; individual recordings): 19.660 and 15.940 and 13.100 and 29.730 and 21.570 and 18.010
